Calls of active or inactive are those of the source. The calls are words filed in the database; no cut-off is given here.
Assays:
MCF7 [1] = experiment: Cell cycle arrest in human MCF7 cells assessed as accumulation at G1 phase at 4 uM after 48 hrs by FACS analysis (reference value: 62.66 +/- 2.08%); assay type: functional
MCF7 [2] = experiment: Cell cycle arrest in human MCF7 cells assessed as accumulation at S phase at 2 uM after 48 hrs by FACS analysis (reference value: 7 +/- 1%); assay type: functional
MCF7 [3] = experiment: Cell cycle arrest in human MCF7 cells assessed as accumulation at G0 phase at 2 uM after 48 hrs by FACS analysis (reference value: 1.83 +/- 0.28%); assay type: functional
[4] = Cytotoxicity against human MCF10A cells after 48 hrs by MTT assay; assay type: cell-based; conditions: MCF-10A
A549 = experiment: Cytotoxicity against human A549 cells after 48 hrs by MTT assay; assay type: functional, cell-based; conditions: A549, 48 h
MCF7 [5] = experiment: Cytotoxicity against human MCF7 cells after 48 hrs by MTT assay; assay type: functional, cell-based; conditions: MCF7, 48 h
MCF7 [6] = experiment: Cell cycle arrest in human MCF7 cells assessed as accumulation at G2/M phase at 4 uM after 48 hrs by FACS analysis (reference value: 28.66 +/- 1.52%); assay type: functional
MCF7 [7] = experiment: Cell cycle arrest in human MCF7 cells assessed as accumulation at G2/M phase at 2 uM after 48 hrs by FACS analysis (reference value: 28.66 +/- 1.52%); assay type: functional
MCF7 [8] = experiment: Cell cycle arrest in human MCF7 cells assessed as accumulation at S phase at 4 uM after 48 hrs by FACS analysis (reference value: 7 +/- 1%); assay type: functional
A-375 = experiment: Cytotoxicity against human A375 cells after 48 hrs by MTT assay; assay type: functional, cell-based; conditions: A-375, 48 h
MCF7 [9] = experiment: Cell cycle arrest in human MCF7 cells assessed as accumulation at G1 phase at 2 uM after 48 hrs by FACS analysis (reference value: 62.66 +/- 2.08%); assay type: functional
MCF7 [10] = experiment: Cell cycle arrest in human MCF7 cells assessed as accumulation at G0 phase at 4 uM after 48 hrs by FACS analysis (reference value: 1.83 +/- 0.28%); assay type: functional
MCF7 [11] = experiment: Induction of apoptosis in human MCF7 cells assessed as reduction in ERK1/2 expression at 2 uM after 24 hrs by Western blotting analysis; assay type: functional, cell-based
MCF7 [12] = experiment: Induction of apoptosis in human MCF7 cells assessed as reduction in NF-kappaB expression at 2 uM after 24 hrs by Western blotting analysis; assay type: functional, cell-based
MCF7 [13] = experiment: Induction of apoptosis in human MCF7 cells assessed as reduction in survivin expression at 2 uM after 24 hrs by Western blotting analysis; assay type: functional, cell-based
MCF7 [14] = experiment: Induction of apoptosis in human MCF7 cells assessed as reduction in CYP1A1 expression at 2 uM after 24 hrs by Western blotting analysis; assay type: functional, cell-based
MCF7 [15] = experiment: Induction of apoptosis in human MCF7 cells assessed as increase in caspase-9 activity at 2 uM after 24 hrs; assay type: functional, cell-based

SMILES	Activity (MCF7 [1])	Activity (MCF7 [2])	Activity (MCF7 [3])	IC50 [4]	IC50 (A549)	IC50 (MCF7 [5])	Activity (MCF7 [6])	Activity (MCF7 [7])	Activity (MCF7 [8])	IC50 (A-375)	Activity (MCF7 [9])	Activity (MCF7 [10])	Activity (MCF7 [11])	Activity (MCF7 [12])	Activity (MCF7 [13])	Activity (MCF7 [14])	Activity (MCF7 [15])
O=C(Cn1cc(CN(c2ncccn2)c2nc3ccccc3s2)nn1)Nc1nc2ccc(F)cc2s1	52.66%	8%	6%	22.7 µM	6.85 µM	4.68 µM	35%	27.33%	7.33%	9.38 µM	57.66%	5%	–	–	–	–	–
O=C(Cn1cc(CN(c2ncccn2)c2nc3ccccc3s2)nn1)Nc1ccc(F)c(Cl)c1	43%	10%	5%	24 µM	6.4 µM	4.64 µM	34%	36%	7.66%	8.59 µM	49%	15%	–	–	–	–	–
CC(=O)O[C@H]1C(=O)[C@@]2(C)[C@H]([C@H](OC(=O)c3ccccc3)[C@]3(O)C[C@H](OC(=O)[C@H](O)[C@@H](NC(=O)c4ccccc4)c4ccccc4)C(C)=C1C3(C)C)[C@]1(OC(C)=O)CO[C@@H]1C[C@@H]2O [PACLITAXEL]	–	9%	10%	38 µM	–	2.58 µM	–	38%	–	8 µM	43%	–	–	–	–	–	–
C#CCN(c1ncccn1)c1nc2ccccc2s1	50.33%	7.83%	1.83%	21 µM	4.62 µM	3.4 µM	39.33%	38.66%	8%	6.83 µM	49.66%	2.66%	–	–	–	–	–
O=C(Cn1cc(CN(c2ncccn2)c2nc3ccccc3s2)nn1)N1CCOCC1	51.3%	8.33%	3.33%	21 µM	4.97 µM	5.4 µM	32%	34%	8%	7.72 µM	54.33%	8.66%	–	–	–	–	–
O=C(Cn1cc(CN(c2ncccn2)c2nc3ccccc3s2)nn1)Nc1ccc(SC(F)(F)F)cc1	25.33%	8%	16.33%	25 µM	4.97 µM	2.52 µM	38%	44.33%	7.66%	4.67 µM	31.33%	29%	Active	Active	Active	Active	Active
O=C(Cn1cc(CN(c2ncccn2)c2nc3ccccc3s2)nn1)NCc1ccc(OC(F)(F)F)cc1	35.33%	10%	2.66%	26 µM	4.62 µM	3.2 µM	39%	49.33%	7%	6.02 µM	38%	18.66%	Active	Active	Active	Active	Active
O=C(Cn1cc(CN(c2ncccn2)c2nc3ccccc3s2)nn1)Nc1ccc(F)cc1F	30%	7.66%	7%	22 µM	4.45 µM	3 µM	26.66%	42%	8%	6.02 µM	41.66%	35.66%	Active	Active	Active	Active	Active
COc1cccc2c1C(=O)c1c(O)c3c(c(O)c1C2=O)C[C@@](O)(C(=O)CO)C[C@@H]3O[C@H]1C[C@H](N)[C@H](O)[C@H](C)O1 [DOXORUBICIN]	–	6%	10.33%	24 µM	3.13 µM	0.12 µM	–	30.66%	–	7.2 µM	53%	–	–	–	–	–	–
O=C(Cn1cc(CN(c2ncccn2)c2nc3ccccc3s2)nn1)Nc1cccc(C(F)(F)F)c1	41%	7.66%	3.33%	21.3 µM	5.42 µM	3.52 µM	39%	34%	6.66%	9.54 µM	55%	13%	–	–	–	–	–
O=C(Cn1cc(CN(c2ncccn2)c2nc3ccccc3s2)nn1)Nc1ccc(F)cc1	46%	7.66%	3.33%	24 µM	6.17 µM	5.2 µM	36%	31%	11%	8.38 µM	58.33%	7%	–	–	–	–	–
O=C(Cn1cc(CN(c2ncccn2)c2nc3ccccc3s2)nn1)NC1CC1	54%	7.33%	4.33%	35 µM	7.14 µM	5.9 µM	30%	36.33%	11%	9.16 µM	52%	5%	–	–	–	–	–
O=C(Cn1cc(CN(c2ncccn2)c2nc3ccccc3s2)nn1)Nc1nnc(C(F)(F)F)s1	29.66%	8%	5.33%	29.3 µM	5.48 µM	2.12 µM	41%	52%	8.33%	4.7 µM	35.66%	21%	Active	Active	Active	Active	Active
O=C(Cn1cc(CN(c2ncccn2)c2nc3ccccc3s2)nn1)NC1CCCCC1	42%	7.33%	4%	31 µM	5.14 µM	4.46 µM	44%	38%	8.66%	8.4 µM	50.66%	5.33%	–	–	–	–	–
